Assay [1] has as its system MDA-MB-231. The experiment in a line: Induction of apoptosis in human MDA-MB-231 2LMP cells assessed as cell death at 3 uM after 4 days by trypan blue exclusion assay. The following applies: MDA-MB-231, 96 h.
Assay [2] relates to MDA-MB-231. Nature of the assay: Induction of apoptosis in human MDA-MB-231 2LMP cells assessed as cell death at 0.3 uM after 4 days by trypan blue exclusion assay. The note with it: MDA-MB-231, 96 h.

With `O=C(c1ccc(Oc2ccccc2)cc1)c1cc(C(=O)c2nc3ccccc3s2)c(O)c(O)c1O`, the cell death at 3 µM in the assay with MDA-MB-231 [1] stood at 86%. The cell death at 0.3 µM in the assay with MDA-MB-231 [2] was 31%.

(Values after ChEMBL document CHEMBL1141593, “Acylpyrogallols as inhibitors of antiapoptotic Bcl-2 proteins” (J Med Chem, 2008).)
